Columns and labels:
[1] = target: Ribonucleoside-diphosphate reductase (Escherichia coli); experiment: Compound was evaluated for time-dependent inactivation of Ribonucleotide diphosphate reductase (RDPR) in Escherichia coli
[2] = system: Ribonucleoside-diphosphate reductase (Escherichia coli); experiment: Compound was evaluated for time-dependent inactivation of rRibonucleotide diphosphate reductase (RDPR) in Escherichia coli

Ki [1]: 830 µM
K inact [2]: 0.015 s⁻¹
Structure (SMILES): C=C1[C@H](n2ccc(=O)[nH]c2=O)O[C@H](COP(=O)(O)OP(=O)(O)O)[C@H]1O

Source: ChEMBL document CHEMBL1125264, “2'-Deoxy-2'-methylenecytidine and 2'-deoxy-2',2'-difluorocytidine 5'-diphosphates: potent mechanism-based inhibitors of ribonucleotide reductase” (J Med Chem, 1991)
